Source: paper PMC9951879, “Synthesis of New Shogaol Analogues as NRF2 Activators and Evaluation of Their Anti-Inflammatory Activity, Modes of Action and Metabolic Stability” (Antioxidants, 2023)
Like-named read-outs stand apart in the source and are kept apart here.

Tests used:
[1] = system: TNF-α; assay: TNF-α ELISA in LPSEc-stimulated BV-2 cells; format: cell-based, mouse; details: LPSEc 200 ng/mL; for inhibition at 1 µM: Mus musculus, BV-2, 1 μM, read-out: percentage of TNF-α inhibition
Description: (§1) The anti-inflammatory activity of the STCs was determined in E. coli lipopolysaccharide (LPSEc; Sigma Aldrich, USA)-induced inflammation in NRF2-proficient and NRF2 siRNA-transfected mouse microglial (BV-2) cells. The NRF2 was silenced in BV-2 cells using NRF2 siRNA (Santa Cruz Biotechnology, Dallas, TX, USA) in Opti-MEM transfection medium (Thermo Fisher Scientific, USA) using Lipofectamine^TM LTX reagent with PLUS^TM reagent (Thermo Fisher Scientific, USA) following the manufacturer’s protocol and reported method. The cells (5 × 10^5 cells/well) were allowed to form a monolayer by incubating them for 24 h and then adding LPSEc (200 ng/mL) for 4 h. The STCs (1 µM) were then added and incubated for another 20 h. The nitric oxide (NO) level in cell supernatant was determined using the Griess reagent kit (Thermo Fisher Scientific, USA). The levels of proinflammatory cytokines (IL-1β, IL-6, IFN-γ, and TNF-α) in cell supernatant solutions were determined using commercially available ELISA kits (Abcam, Cambridge, UK). The cell pellets were lysed using Cell Lysis buffer (Thermo Fisher Scientific, Waltham, MA, USA) following the manufacturer’s instructions. The supernatant solution in the wells was replaced with PBS, and cells were detached by scraping, washed with PBS, and centrifuged to collect the cell pellet. The cell pellet was lysed on ice in a cell lysis buffer for half an hour, vortexing at regular intervals. The cell lysate was centrifuged at 15,000 rpm for 15 min at 4 °C. The clear lysate was stored at −80 °C until further use. The protein concentration was determined using Bradford’s assay kit (Thermo Fisher Scientific, USA) following the manufacturer’s instructions. The expression of COX-2, NF-κB p65, NRF2, and HO-1 in cell lysates was determined using commercially available ELISA kits (Abcam, St, Louis, Missouri, USA) following the manufacturer’s protocol. In addition, the thiol content was determined using a thiol quantification assay kit (Abcam, USA).

[2] = target: T1, GSK-3β (Homo sapiens, UniProt P49841); assay: GSK-3β kinase ADP-Glo assay; format: biochemical; details: ATP 25 μM, read-out: IC50, GSK-3β enzyme activity
T1 construct: purchased Promega
Description: The effect of STCs on GSK-3β activity was determined using GSK-3β kinase enzyme (Promega, WI, USA) and ADP-Glo^TM kinase assay (Promega, USA) following the manufacturer’s protocol and reported method. The STCs were dissolved in the kinase buffer to prepare different concentrations (10, 1, 0.1, 0.01, and 0.001 μM). One microliter of the test compounds was added to each well (384 well plate), followed by the addition of 2 μL of GSK-3β kinase (1 ng), 2 μL of the GSK-3β substrate (0.4 μg), and 2 μL of the ATP (25 μM), and incubated for 60 min. Then, 5 μL of ADP-Glo^TM reagent was added and incubated further for 40 min. Then 10 μL of kinase detection reagent was added and incubated for 30 min. The luminescence was recorded using a SpectraMax®L microplate reader (Molecular Devices, San Jose, CA, USA). The IC50 (concentration of the test compound required to produce half-maximal […]) from dose-response curves using non-linear regression analysis using GraphPad Prism (9.5.0; San Diego, CA, USA) software.

[3] = system: IFN-γ; assay: IFN-γ ELISA in LPSEc-stimulated BV-2 cells; format: cell-based, mouse; details: LPSEc 200 ng/mL; for IFN-γ level: 1 μM; for inhibition at 1 µM: Mus musculus, BV-2, 1 μM, read-out: percentage of IFN-γ inhibition
Description: as §1

[4] = Liver microsomal stability, mouse; format: in vitro ADME; details: mouse liver microsomes, 1 μM (verapamil 0.5 μM)
Description: (§2) The liver microsomes of humans, rats, and mice were purchased from Merck (human, #M0567; rat, #M9066; mouse, #M9441). The metabolic stability of 6-shogaol and STCs (1 μM effective concentration; 5 μL) was mixed with liver microsomes (0.5 mg mL^−1; 445 μL) in a microcentrifuge tube. Verapamil (0.5 μM) was used as the positive control. The microsome and compound mixture were shaken on a plate shaker for 5 min to ensure homogeneity. NADPH (1 mM; 50 μL) was added to the mixture to start the metabolic reaction. The reaction mixture was incubated at 37 °C for 0, 3, 6, 15, 30, 45, and 60 min. The mixture (20 μL) was sampled and quenched with 180 μL of acetonitrile with internal standard (Donepezil 50 ng/mL) to terminate the metabolic reaction at each time point. Ultrapure water (80 μL) was added, and contents in the microcentrifuge tubes were centrifuged at 3800 rpm at 4 °C for 10 min. […] Each set of experiments was repeated three times in human, rat, and mouse liver microsomes. The concentration of the compounds versus time was plotted to determine the elimination rate constant (Kel). The intrinsic clearance (Clint) and half-life (t1/2) were calculated using the following equations.

[5] = system: NF-κB p65; assay: NF-κB p65 ELISA in LPSEc-stimulated BV-2 cell lysates; format: cell-based, mouse; details: LPSEc 200 ng/mL; for NF-κB p65 level: 1 μM; for inhibition at 1 µM: Mus musculus, BV-2, 1 μM, read-out: percent NF-κB inhibition
Description: as §1

[6] = system: COX-2; assay: COX-2 ELISA in LPSEc-stimulated BV-2 cell lysates; format: cell-based, mouse; details: LPSEc 200 ng/mL; for COX-2 level: 1 μM; for inhibition at 1 µM: Mus musculus, BV-2, 1 μM, read-out: percentage of COX-2 inhibition
Description: as §1

[7] = Liver microsomal stability, rat; format: in vitro ADME; details: rat liver microsomes, 1 μM (verapamil 0.5 μM)
Description: as §2

[8] = system: IL-6; assay: IL-6 ELISA in LPSEc-stimulated BV-2 cells; format: cell-based, mouse; details: LPSEc 200 ng/mL; for IL-6 level: 1 μM; for inhibition at 1 µM: Mus musculus, BV-2, 1 μM, read-out: percentage of IL-6 inhibition
Description: as §1

[9] = Liver microsomal stability, human; format: in vitro ADME; details: for Clint / half-life at 1 μM: human liver microsomes, 1 μM (verapamil 0.5 μM)
Description: as §2

[10] = system: IL-1β; assay: IL-1β ELISA in LPSEc-stimulated BV-2 cells; format: cell-based, mouse; details: LPSEc 200 ng/mL; for IL-1β level: 1 μM; for inhibition at 1 µM: Mus musculus, BV-2, 1 μM, read-out: percentage of IL-1β inhibition
Description: as §1

[11] = system: nitric oxide (NO); assay: Nitric oxide (Griess) in LPSEc-stimulated BV-2 cells; format: cell-based, mouse; details: LPSEc 200 ng/mL; for NO production: 1 μM; for inhibition at 1 µM: Mus musculus, BV-2, 1 μM, read-out: percentage of NO inhibition
Description: as §1

[12] = 1 μM, NRF2-proficient BV-2 cells

T1 sequence (P49841 whole entry): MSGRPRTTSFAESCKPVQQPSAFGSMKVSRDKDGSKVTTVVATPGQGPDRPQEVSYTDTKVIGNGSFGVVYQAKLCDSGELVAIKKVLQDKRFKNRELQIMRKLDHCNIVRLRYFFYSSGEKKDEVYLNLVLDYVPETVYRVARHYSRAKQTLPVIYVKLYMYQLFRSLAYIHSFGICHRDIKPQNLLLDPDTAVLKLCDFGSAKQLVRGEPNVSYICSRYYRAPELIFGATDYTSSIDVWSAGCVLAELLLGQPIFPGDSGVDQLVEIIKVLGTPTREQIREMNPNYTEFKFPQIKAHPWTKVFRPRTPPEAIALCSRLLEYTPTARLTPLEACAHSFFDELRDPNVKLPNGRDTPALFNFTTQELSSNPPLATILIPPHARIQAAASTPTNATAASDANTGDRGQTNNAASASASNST

Compound	TNF-α level [1, 12] [pg/mL]	TNF-α level ([1]; 1 μM, NRF2-silenced BV-2 cells) [pg/mL]	inhibition at 1 µM ([1]; NRF2-proficient BV-2 cells) [%]	IC50 [2] [nM]	IFN-γ level ([3]; NRF2-proficient BV-2 cells) [pg/mL]	IFN-γ level ([3]; NRF2-silenced BV-2 cells) [pg/mL]	inhibition at 1 µM ([3]; NRF2-proficient BV-2 cells) [%]	Clint [4] [mL/min/g liver]	half-life at 1 μM [4] [min]	NF-κB p65 level ([5]; NRF2-proficient BV-2 cells) [ng/mL]	NF-κB p65 level ([5]; NRF2-silenced BV-2 cells) [ng/mL]	COX-2 level ([6]; NRF2-silenced BV-2 cells) [ng/mL]	Clint [7] [mL/min/g liver]	half-life at 1 μM [7] [min]	IL-6 level ([8]; NRF2-proficient BV-2 cells) [pg/mL]	IL-6 level ([8]; NRF2-silenced BV-2 cells) [pg/mL]	Clint [9] [mL/min/g liver]	half-life at 1 μM [9] [min]	IL-1β level ([10]; NRF2-silenced BV-2 cells) [pg/mL]	NO production ([11]; NRF2-proficient BV-2 cells) [µM]	other results
CCCCC/C=C/C(=O)CCc1ccc(O)c(OC)c1 [6-shogaol, reference compound]	1734.00 ± 51.00	3113.00 ± 55.34	40.4	420 ± 130	25.75 ± 0.72	37.52 ± 1.01	36.3	14.32 ± 1.51	5.08	70.54 ± 5.04	132.17 ± 4.52	6.03 ± 0.21	11.51 ± 1.37	6.32	435.67 ± 7.77	852.67 ± 5.69	7.56 ± 1.24	9.63	88.57 ± 0.55	6.32 ± 0.03	percentage of TNF-α inhibition ([1]; 1 μM, NRF2-silenced BV-2 cells): no inhibition; inhibition at 1 µM ([3]; NRF2-silenced BV-2 cells): 10.5%; inhibition at 1 µM ([5]; NRF2-proficient BV-2 cells): 44%; inhibition at 1 µM ([5]; NRF2-silenced BV-2 cells): 4.61%; COX-2 level ([6]; NRF2-proficient BV-2 cells): 4.30 ± 0.10 ng/mL; inhibition at 1 µM ([6]; NRF2-proficient BV-2 cells): 35.5%; inhibition at 1 µM ([6]; NRF2-silenced BV-2 cells): 11.7%; inhibition at 1 µM ([8]; NRF2-proficient BV-2 cells): 53%; inhibition at 1 µM ([8]; NRF2-silenced BV-2 cells): 6.27%; IL-1β level ([10]; NRF2-proficient BV-2 cells): 43.30 ± 0.62 pg/mL; inhibition at 1 µM ([10]; NRF2-proficient BV-2 cells): 53.7%; inhibition at 1 µM ([10]; NRF2-silenced BV-2 cells): 5%; NO production ([11]; NRF2-silenced BV-2 cells): 8.56 ± 0.36 µM; inhibition at 1 µM ([11]; NRF2-proficient BV-2 cells): 40%; inhibition at 1 µM ([11]; NRF2-silenced BV-2 cells): 24.7%
COc1cc(CCC(=O)/C=C/c2cc(-c3ccccc3)cs2)ccc1O [STC5, (E)-5-(4-Hydroxy-3-methoxyphenyl)-1-(4-phenylthiophen-2-yl)pent-1-en-3-one]	850.00 ± 77.90	2581.00 ± 51.00	70.8	50 ± 1	14.34 ± 1.10	31.19 ± 0.85	42.7	6.42 ± 1.52	11.3	41.5 ± 0.79	86.3 ± 1.03	3.48 ± 0.09	7.22 ± 1.23	10.1	212.33 ± 6.11	748.67 ± 8.33	5.09 ± 0.98	14.3	72.50 ± 1.32	2.58 ± 0.04	inhibition at 1 µM ([1]; NRF2-silenced BV-2 cells): 17%; inhibition at 1 µM ([3]; NRF2-silenced BV-2 cells): 25.6%; inhibition at 1 µM ([5]; NRF2-proficient BV-2 cells): 67.1%; inhibition at 1 µM ([5]; NRF2-silenced BV-2 cells): 37.7%; inhibition at 1 µM ([6]; NRF2-proficient BV-2 cells): 76%; inhibition at 1 µM ([6]; NRF2-silenced BV-2 cells): 49.1%; inhibition at 1 µM ([8]; NRF2-proficient BV-2 cells): 77.1%; inhibition at 1 µM ([8]; NRF2-silenced BV-2 cells): 17.7%; half-life in liver microsomes, times longer than that of 6-shogaol ([9]; liver microsomes, species not stated, versus 6-shogaol): about 1.5 times; inhibition at 1 µM ([10]; NRF2-proficient BV-2 cells): 71.4%; inhibition at 1 µM ([10]; NRF2-silenced BV-2 cells): 22.3%; inhibition at 1 µM ([11]; NRF2-proficient BV-2 cells): 75.5%; inhibition at 1 µM ([11]; NRF2-silenced BV-2 cells): 64.8%
COc1cc(CCC(=O)/C=C/c2ccc([N+](=O)[O-])s2)ccc1O [STC8, (E)-5-(4-Hydroxy-3-methoxyphenyl)-1-(5-nitrothiophen-2-yl)pent-1-en-3-one]	1751.00 ± 77.90	3130.33 ± 27.47		870 ± 90	24.63 ± 0.64	37.86 ± 1.69		11.26 ± 2.69	6.46	75.6 ± 5.04	131.57 ± 0.15	4.47 ± 0.15	10.57 ± 1.48	6.88	431.667 ± 3.06	846.67 ± 11.68	6.95 ± 1.52	10.5	77.33 ± 0.93	6.38 ± 0.04	COX-2 level ([6]; NRF2-proficient BV-2 cells): 4.10 ± 0.10 ng/mL; IL-1β level ([10]; NRF2-proficient BV-2 cells): 39.93 ± 0.74 pg/mL; NO production ([11]; NRF2-silenced BV-2 cells): 8.86 ± 0.38 µM
